Key:
[1] = system: lenti-GLDC shRNA-insulted mice; assay: Barnes maze spatial learning and memory in lenti-GLDC shRNA-insulted mice; assay type: in vivo, C57/BL6 mice; conditions: 50 and 100 mg/kg body wt/d, daily gavage, after 7 d of treatment
Protocol: FIG. 1A-1B. […] C57/BL6 mice (8-10 week old) received lentiviral GLDC shRNA (1×10^7 IFU/mouse in 100 μl Hank's Balanced Salt Solution or HBSS) once via tail-vein injection. Therefore, control mice also received 100 μl HBSS via tail-vein. From 7 d after lenti-GLDC shRNA injection, mice were treated with different doses (50 and 100 mg/kg body wt/d) of CA daily via gavage. After 7 d of CA treatment, spatial learning and memory was monitored by Barnes maze (FIG. 1A, latency; FIG. 1B, errors). Results are mean±SEM of five mice per group.
(§1) C57/BL6 mice (8-10 week old) received lentiviral GLDC shRNA (1×10^7 IFU/mouse in 100 μl Hank's Balanced Salt Solution or HBSS) once via tail-vein injection (FIG. 1). Therefore, a group of control mice received only 100 μl HBSS via tail-vein injection.
(§2) Therefore, one group of lenti-GLDC shRNA-insulted mice were also treated with 100 μl 0.5% methyl cellulose as vehicle control.
Lenti-GLDC shRNA-insulted mice took longer time to find the correct hole (FIG. 1A) and made more errors (FIG. 1B) as compared to HBSS-treated control mice.

[2] = system: lenti-GLDC shRNA-insulted mice; assay: Glycine level in cortex of lenti-GLDC shRNA-insulted mice (fluorometric assay kit); assay type: in vivo, C57/BL6 mice; conditions: oral, 14 d of treatment
Protocol: FIG. 2. […] C57/BL6 mice (8-10 week old) received lentiviral GLDC shRNA (1×10^7 IFU/mouse in 100 μl HBSS) once via tail-vein injection. Therefore, control mice also received 100 μl HBSS via tail-vein. From 7 d after lenti-GLDC shRNA injection, mice were treated with different doses (50 and 100 mg/kg body wt/d) of CA daily via gavage. After 14 d of CA treatment, the level of glycine was measured in cortex by using a fluorometric assay kit (Biovision). Each mouse sample was run in triplicate. Results are mean±SEM of five mice per group.
as §1, §2
On 14 d of treatment, mice were sacrificed and level of glycine was measured in brain (cortex).

O=C(O)C=Cc1ccccc1 [cinnamic acid]
errors in reaching the target hole (Barnes maze) [1]: significantly reduced latency and errors | latency in reaching the target hole (Barnes maze) [1]: significantly reduced latency | level of glycine in the cortex ([2]; 50 mg/kg body wt/d): very effective in lowering the level of glycine | level of glycine in the cortex ([2]; 50 and 100 mg/kg body wt/d): strongly inhibited the level of glycine

Source: US12478598B2 (Rush University Medical Center, priority 2019, dated 2025)
